Reference: patent US20250213530A1 (GH RESEARCH IRELAND LIMITED, priority 2022, published 2025)

How the values were obtained:
[1] = test system: patient with postpartum depression (PPD); assay: Clinical trial of inhaled 5-MeO-DMT, safety and tolerability; assay type: in vivo, human; conditions: one PPD patient
Source text: (§1) The patient completed all planned visit days.

[2] = test system: patient with postpartum depression (PPD); assay: Clinical trial of inhaled 5-MeO-DMT (IDR, 6 mg then 12 mg), BPRS; assay type: in vivo, human; conditions: one PPD patient, baseline 6
Source text: as §1

[3] = test system: patient with postpartum depression (PPD); assay: Clinical trial of inhaled 5-MeO-DMT (IDR, 6 mg then 12 mg), MADRS; assay type: in vivo, human; conditions: one PPD patient; for Total MADRS improvement / Total MADRS score: baseline 29
Source text: as §1

[4] = test system: patient with postpartum depression (PPD); assay: Clinical trial of inhaled 5-MeO-DMT (IDR, 6 mg then 12 mg), Barkin Index of Maternal Functioning (BIMF); assay type: in vivo, human; conditions: one PPD patient
Source text: Maternal functioning can, for instance, be assessed using the Barkin Index of Maternal Functioning (BIMF). This index was designed to measure functioning in the year after childbirth. The BIMF is a 20-item self-report measure of functioning. Each item is assigned a score between 0 and 6 so that the maximum total score is 120. The higher the score, the better maternal functioning is rated.
The BIMF identifies the key functional domains of a mother during the postnatal period as: self-care, infant care, mother-child interaction, psychological wellbeing of the mother, social support, management, and adjustment.
as §1

[5] = Pharmacokinetics after inhalation of 5-MeO-DMT, LC-MS/MS

Compound: COc1ccc2[nH]cc(CCN(C)C)c2c1 [5-MeO-DMT]
- ECG (at 3 hours), safety laboratory analyses (at 7 days), CADSS (at 3 hours, 1 day and 7 days) [1]: unremarkable
- reported adverse events (cramping left abdominal pain and headache, both on Day 0) [1]: mild, short-lasting and resolved spontaneously
- tolerability of the inhalation procedure [1]: well tolerated with no inhalation-related adverse events
- changes in vital parameters ([1]; shortly after administration, no other noteworthy changes): temporary, clinically non-relevant increase in heart rate and blood pressure
- BPRS Tension improvement ([2]; Day 1): 5
- BPRS Tension improvement ([2]; Discharge): 5
- standard criteria for MADRS remission (MADRS total score equal or less than 10) [3]: fulfilled
- standard criteria for MADRS response (at least 50% improvement from baseline) [3]: fulfilled
- Total MADRS improvement ([3]; 2 hr): 24
- Total MADRS score ([3]; 2 hr): 5
- Total MADRS improvement ([3]; Day 1): 29
- Total MADRS score ([3]; Day 1): 0
- Total MADRS improvement ([3]; Day 7): 28
- Total MADRS score ([3]; Day 7): 1
- time to clinical remission after administration ([3]; IDR 6 mg then 12 mg): ≤ 2 h
- BIMF item 19 (As time goes on, I am getting better at taking care of my baby) score ([4]; Day 7, Day 0 score 0): 1
- BIMF item 16 (I worry about how other people judge me (as a mother)) score ([4]; Day 7, Day 0 score 3): 5
- BIMF item 13 (I am taking good care of my physical needs) score ([4]; Day 7, Day 0 score 4): 5
- BIMF item 5 (I am able to relax and enjoy time with my baby) score ([4]; Day 7, Day 0 score 5): 6
- BIMF item 9 (I am getting enough encouragement from other people) score ([4]; Day 7, Day 0 score 5): 6
- BIMF item 10 (I trust my own feelings (instincts) when it comes to taking care of my baby) score ([4]; Day 7, Day 0 score 5): 6
- BIMF item 11 (I take a little time each week to do something for myself) score ([4]; Day 7, Day 0 score 5): 6
- BIMF item 17 (I am able to take care of my baby and my other responsibilities) score ([4]; Day 7, Day 0 score 5): 5
- BIMF functional domain Adjustment score ([4]; Day 7, Day 0 score 5, maximum possible 12): 6
- BIMF item 3 (I am comfortable with the way I've chosen to feed my baby) score ([4]; Day 7, Day 0 score 6): 6
- BIMF item 6 (There are people in my life that I can trust to care for my baby when I need a break) score ([4]; Day 7, Day 0 score 6): 6
- BIMF item 8 (I am getting enough adult interaction) score ([4]; Day 7, Day 0 score 6): 6
- BIMF item 12 (I am taking good care of my baby's physical needs) score ([4]; Day 7, Day 0 score 6): 6
- BIMF item 14 (I make good decisions about my baby's health and well being) score ([4]; Day 7, Day 0 score 6): 6
- BIMF item 20 (I am satisfied with the job I am doing as a new mother) score ([4]; Day 7, Day 0 score 6): 5
- BIMF functional domain Self Care score ([4]; Day 7, Day 0 score 9, maximum possible 18): 13
- BIMF functional domain Infant Care score ([4]; Day 7, Day 0 score 12, maximum possible 12): 12
- BIMF functional domain Mother-Child Interaction score ([4]; Day 7, Day 0 score 15, maximum possible 18): 17
- BIMF functional domain Social Support score ([4]; Day 7, Day 0 score 17, maximum possible 18): 18
- BIMF functional domain Management score ([4]; Day 7, Day 0 score 28, maximum possible 36): 33
- BIMF functional domain Psychological Well-being score ([4]; Day 7, Day 0 score 44, maximum possible 60): 53
- BIMF total score improvement ([4]; Day 7, from 92 to 105): 14%
- BIMF TOTAL Δ (Day 7) ([4]; Day 7 vs Day 0): 13
- BIMF functional domain Adjustment % Improvement ([4]; Day 7 vs Day 0): 20.00%
- BIMF functional domain Infant Care % Improvement ([4]; Day 7 vs Day 0): 0.00%
- BIMF functional domain Management % Improvement ([4]; Day 7 vs Day 0): 18%
- BIMF functional domain Self Care % Improvement ([4]; Day 7 vs Day 0): 44%
- BIMF item 3 (I am comfortable with the way I've chosen to feed my baby) Δ (Day 7) ([4]; Day 7 vs Day 0): 0
- BIMF item 5 (I am able to relax and enjoy time with my baby) Δ (Day 7) ([4]; Day 7 vs Day 0): 1
- BIMF item 6 (There are people in my life that I can trust to care for my baby when I need a break) Δ (Day 7) ([4]; Day 7 vs Day 0): 0
- BIMF item 8 (I am getting enough adult interaction) Δ (Day 7) ([4]; Day 7 vs Day 0): 0
- BIMF item 9 (I am getting enough encouragement from other people) Δ (Day 7) ([4]; Day 7 vs Day 0): 1
- BIMF item 10 (I trust my own feelings (instincts) when it comes to taking care of my baby) Δ (Day 7) ([4]; Day 7 vs Day 0): 1
- BIMF item 11 (I take a little time each week to do something for myself) Δ (Day 7) ([4]; Day 7 vs Day 0): 1
- BIMF item 12 (I am taking good care of my baby's physical needs) Δ (Day 7) ([4]; Day 7 vs Day 0): 0
- BIMF item 13 (I am taking good care of my physical needs) Δ (Day 7) ([4]; Day 7 vs Day 0): 1
- BIMF item 14 (I make good decisions about my baby's health and well being) Δ (Day 7) ([4]; Day 7 vs Day 0): 0
- BIMF item 17 (I am able to take care of my baby and my other responsibilities) Δ (Day 7) ([4]; Day 7 vs Day 0): 0
- BIMF item 19 (As time goes on, I am getting better at taking care of my baby) Δ (Day 7) ([4]; Day 7 vs Day 0): 1
- BIMF item 20 (I am satisfied with the job I am doing as a new mother) Δ (Day 7) ([4]; Day 7 vs Day 0): −1
- plasma concentration as % of Cmax ([5]; 10 minutes after administration, whole dose range tested (6 mg, 12 mg, 18 mg)): ≤ 10 % of Cmax
- plasma concentration as % of Cmax ([5]; after 2 hours, whole dose range tested (6 mg, 12 mg, 18 mg)): ≤ 1 % of Cmax
- detectability in the plasma ([5]; after 3 hours, whole dose range tested (6 mg, 12 mg, 18 mg)): no longer detectable
- pharmacokinetic measurements, uptitration dosing schemes ([5]; compared with the single dose results): Substantially similar results
- accumulation upon repeated administration ([5]; repeated administration within a time frame of 1 to 4 hours): No accumulation
